Reference: patent US6825230B2, “Spiro and dispiro 1,2,4-trixolane antimalarials” (Medicines for Malaria Venture MMV, priority 2002, dated 2004)
In brackets after ≈: the same amount, converted by molar mass. Where two headings read alike, the source gives them in different places.

Assays:
[1] = system: chloroquine-resistant K1 strain of P. falciparum; experiment: In vitro antimalarial semiautomated microdilution assay ([3H]-hypoxanthine incorporation), K1 strain; format: cell-based, Plasmodium falciparum; settings: for IC50: Plasmodium falciparum
How it was run: (§1)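 Asynchronous stock-culture parasites (intraerythrocytic forms), serial compound dilutions; readout [3H]-hypoxanthine uptake; IC50 via Logit regression.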

[2] = system: chloroquine-sensitive NF54 strain of P. falciparum; experiment: In vitro antimalarial semiautomated microdilution assay ([3H]-hypoxanthine incorporation), NF54 strain; format: cell-based, Plasmodium falciparum; settings: for IC50: Plasmodium falciparum
How it was run: as §1

[3] = system: ANKA strain of P. berghei; experiment: Single dose STI in vivo screen in infected mice; design: species or system Plasmodium berghei; settings: for Survival (days) 10 mg/kg po: single 10 mg/kg po in 3% ethanol and 7% Tween 80; for Survival (days) 10 mg/kg po / Survival (days) 10 mg/kg SSV po / Survival (days) 10 mg/kg sc: untreated 6-7 days; for Activity (%) 10 mg/kg po: single 10 mg/kg po in 3% ethanol and 7% Tween 80 on day 1 post-infection; for Activity (%) 10 mg/kg po / Activity (%) 10 mg/kg SSV po / Activity (%) 10 mg/kg sc: percent reduction in parasitemia on day 3; for Survival (days) 10 mg/kg SSV po: single 10 mg/kg po in SSV; for Activity (%) 10 mg/kg SSV po: single 10 mg/kg po in standard suspending vehicle (SSV) on day 1 post-infection; for Survival (days) 10 mg/kg sc: single 10 mg/kg sc in 3% ethanol and 7% Tween 80; for Activity (%) 10 mg/kg sc: single 10 mg/kg sc in 3% ethanol and 7% Tween 80 on day 1 post-infection
[4] = system: Schistosoma mansoni 21-day-old schistosomules; experiment: Effect on 21-day-old schistosomules in infected mice; format: in vivo; settings: for % reduction of schistosomule growth at day 21 after per os application of 200 mg/kg, FWR (%): female worm reduction rate
Procedure: Mice were infected with 100 Schistosoma mansoni cercariae on day 21 post-treatment. Each group was treated per os with trioxolanes at a single dose of 200 mg/kg. […] All groups were killed 4 weeks after treatment and the liver and intestine were removed and separated. The liver and intestine were compressed and alive male and female worms could be seen and counted. The effect of the compounds was evaluated by mean total and female worm burden.

[5] = system: Schistosoma mansoni adult worms (49-day-old); experiment: Effect on adult schistosomes (49-day-old) in infected mice; format: in vivo; settings: single 400 mg/kg per os; for % reduction of adult worms growth at day 49 after per os application of 400 mg/kg, TWR (%): 49-day-old adults, total worm reduction rate; for Adult worms day 49, per os 400 mg/kg, DEAD WORM (%): percentage of dead worm in the liver
Procedure: Mice were infected with 100 Schistosoma mansoni cercariae on day 49 post-treatment. Each group was treated per os with OZ compounds at single doses of 200, 400, and 600 mg/kg. Untreated mice served as the control. All groups were killed 4 weeks after treatment and the liver and intestine were removed and separated. The liver and intestine were compressed and alive male and female worms could be seen and counted.

[6] = K1, 72 h, read-out: IC50 (ng/ml) K1, chloroquine-resistant K1 strain, 72 h incubation
[7] = NF54, 72 h, read-out: IC50 (ng/ml) NF54, chloroquine-sensitive NF54 strain, 72 h incubation
[8] = single 200 mg/kg per os, 21-day-old schistosomules
[9] = single 200 mg/kg per os, 21-day-old schistosomules, total worm reduction rate
[10] = chloroquine-resistant K1 strain, 72 h incubation, read-out: IC50 (ng/ml) K1
[11] = chloroquine-sensitive NF54 strain, 72 h incubation, read-out: IC50 (ng/ml) NF54

## C1CCN(C2CCC3(CC2)OOC2(O3)C3CC4CC(C3)CC2C4)CC1 (stereo not shown) [OZ159]
[1]; [6]
  IC50: 0.7 ng/mL (≈ 2.01 nM)
[2]; [7]
  IC50: 0.94 ng/mL (≈ 2.71 nM)
[3]
  Survival (days) 10 mg/kg po: 6.7 days
  Activity (%) 10 mg/kg po: 34%
  Survival (days) 10 mg/kg SSV po: 6.7 days
  Activity (%) 10 mg/kg SSV po: 31%
  Survival (days) 10 mg/kg sc: 9.0 days
  Activity (%) 10 mg/kg sc: 98%
[4]; [8]
  % reduction of schistosomule growth at day 21 after per os application of 200 mg/kg, FWR (%): 19%
[4]; [9]
  % reduction of schistosomule growth at day 21 after per os application of 200 mg/kg, TWR (%): 19%

## CCCC1CCC2(CC1)OOC1(O2)C2CC3CC(C2)CC1C3 (stereo not shown) [OZ25]
[4]; [8]
  % reduction of schistosomule growth at day 21 after per os application of 200 mg/kg, FWR (%): 84%
[4]; [9]
  % reduction of schistosomule growth at day 21 after per os application of 200 mg/kg, TWR (%): 86%
[5]
  % reduction of adult worms growth at day 49 after per os application of 400 mg/kg, TWR (%): 46%
  Adult worms day 49, per os 400 mg/kg, DEAD WORM (%): 34%

## c1ccc(CNC2CCC3(CC2)OOC2(O3)C3CC4CC(C3)CC2C4)cc1 (stereo not shown) [OZ160]
[1]; [6]
  IC50: 0.7 ng/mL (≈ 1.89 nM)
[2]; [7]
  IC50: 0.87 ng/mL (≈ 2.35 nM)
[3]
  Survival (days) 10 mg/kg po: 6.3 days
  Activity (%) 10 mg/kg po: 45%
  Survival (days) 10 mg/kg SSV po: 6.7 days
  Activity (%) 10 mg/kg SSV po: 43%
  Survival (days) 10 mg/kg sc: 12.0 days
  Activity (%) 10 mg/kg sc: 99.94%
[4]; [8]
  % reduction of schistosomule growth at day 21 after per os application of 200 mg/kg, FWR (%): 0%
[4]; [9]
  % reduction of schistosomule growth at day 21 after per os application of 200 mg/kg, TWR (%): 0%

## C1CCCCCC2(CCCCC1)OOC1(O2)C2CC3CC(C2)CC1C3 (stereo not shown) [OZ20]
[4]; [8]
  % reduction of schistosomule growth at day 21 after per os application of 200 mg/kg, FWR (%): 0%
[4]; [9]
  % reduction of schistosomule growth at day 21 after per os application of 200 mg/kg, TWR (%): 0%
[5]
  % reduction of adult worms growth at day 49 after per os application of 400 mg/kg, TWR (%): 0/0%
  Adult worms day 49, per os 400 mg/kg, DEAD WORM (%): 0/0%

## O=[N+]([O-])c1ccc(NN=C2CCC3(CC2)OOC2(O3)C3CC4CC(C3)CC2C4)c([N+](=O)[O-])c1 (stereo not shown) [OZ29]
[4]; [8]
  % reduction of schistosomule growth at day 21 after per os application of 200 mg/kg, FWR (%): 20%
[4]; [9]
  % reduction of schistosomule growth at day 21 after per os application of 200 mg/kg, TWR (%): 28%
[5]
  % reduction of adult worms growth at day 49 after per os application of 400 mg/kg, TWR (%): 0/0%
  Adult worms day 49, per os 400 mg/kg, DEAD WORM (%): 0/0%

## NC[C@H]1CC[C@]2(CC1)OOC1(O2)C2CC3CC(C2)CC1C3 (stereo partly shown) [OZ163]
[2]; [7]
  IC50: 0.2 ng/mL (≈ 0.682 nM)
[3]; hydrochloride, 10 mg/kg
  Survival (days) 10 mg/kg po: 8.0 days
  Activity (%) 10 mg/kg po: 99.90%
  Survival (days) 10 mg/kg SSV po: 9.0 days
  Activity (%) 10 mg/kg SSV po: 99.94%
  Survival (days) 10 mg/kg sc: 9.7 days
  Activity (%) 10 mg/kg sc: 100%
[4]; [8]
  % reduction of schistosomule growth at day 21 after per os application of 200 mg/kg, FWR (%): 80%

## CN1CCN(C(=O)N2CCC3(CC2)OOC2(O3)C3CC4CC(C3)CC2C4)CC1 (stereo not shown) [OZ157, Adamantane-2-spiro-3′-8′-[(4′-methyl-1′-piperazinyl)carbonyl]-1′,2′,4′-trioxa-8′-azaspiro[4.5]decane]
[1]; [6]
  IC50: 0.2 ng/mL (≈ 0.511 nM)
[2]; [7]
  IC50: 0.22 ng/mL (≈ 0.562 nM)
[3]
  Survival (days) 10 mg/kg po: 7.3 days
  Activity (%) 10 mg/kg po: 90%
  Survival (days) 10 mg/kg SSV po: 8.3 days
  Activity (%) 10 mg/kg SSV po: 80%
  Survival (days) 10 mg/kg sc: 8.3 days
  Activity (%) 10 mg/kg sc: 97%
[4]; [8]
  % reduction of schistosomule growth at day 21 after per os application of 200 mg/kg, FWR (%): 68%
[4]; [9]
  % reduction of schistosomule growth at day 21 after per os application of 200 mg/kg, TWR (%): 65%

## c1cn(C[C@H]2CC[C@]3(CC2)OOC2(O3)C3CC4CC(C3)CC2C4)cn1 (stereo partly shown) [OZ145]
[1]; [10]
  IC50: 0.5 ng/mL (≈ 1.45 nM)
[2]; [11]
  IC50: 0.76 ng/mL (≈ 2.21 nM)
[3]; 10 mg/kg
  Survival (days) 10 mg/kg po: 8.3 days
  Activity (%) 10 mg/kg po: 99.82%
  Survival (days) 10 mg/kg SSV po: 10.7 days
  Activity (%) 10 mg/kg SSV po: 99.21%
  Survival (days) 10 mg/kg sc: 10.7 days
  Activity (%) 10 mg/kg sc: 99.87%
[4]; po, 200 mg/kg, 504 h
  % reduction of schistosomule growth at day 21 after per os application of 200 mg/kg, TWR (%): 80%
[4]; [8]
  % reduction of schistosomule growth at day 21 after per os application of 200 mg/kg, FWR (%): 83%

## OC[C@H]1CC[C@]2(CC1)OOC1(O2)C2CC3CC(C2)CC1C3 (stereo partly shown) [OZ119]
[1]; [10]
  IC50: 0.83 ng/mL (≈ 2.82 nM)
[2]; [11]
  IC50: 0.2 ng/mL (≈ 0.679 nM)
[3]
  Survival (days) 10 mg/kg po: 7.7 days
  Activity (%) 10 mg/kg po: 99.29%
  Survival (days) 10 mg/kg SSV po: 8.0 days
  Activity (%) 10 mg/kg SSV po: 99.15%
  Survival (days) 10 mg/kg sc: 8.3 days
  Activity (%) 10 mg/kg sc: 99.66%
[4]; po, 200 mg/kg, 504 h
  % reduction of schistosomule growth at day 21 after per os application of 200 mg/kg, TWR (%): 88%
[4]; [8]
  % reduction of schistosomule growth at day 21 after per os application of 200 mg/kg, FWR (%): 87%

## O=[N+]([O-])c1ccc(N2CCC3(CC2)OOC2(O3)C3CC4CC(C3)CC2C4)cc1 (stereo not shown) [OZ151, Adamantane-2-spiro-3′-8′-(4′-nitrophenyl)-1′,2′,4′-trioxa-8′-azaspiro[4.5]decane]
[1]; [10]
  IC50: 3.8 ng/mL (≈ 9.83 nM)
[2]; [11]
  IC50: 4 ng/mL (≈ 10.4 nM)
[3]
  Survival (days) 10 mg/kg po: 7.3 days
  Activity (%) 10 mg/kg po: 71%
  Survival (days) 10 mg/kg SSV po: 7.3 days
  Activity (%) 10 mg/kg SSV po: 71%
  Survival (days) 10 mg/kg sc: 11.0 days
  Activity (%) 10 mg/kg sc: 99.63%
[4]; po, 200 mg/kg, 504 h
  % reduction of schistosomule growth at day 21 after per os application of 200 mg/kg, TWR (%): 19%
[4]; [8]
  % reduction of schistosomule growth at day 21 after per os application of 200 mg/kg, FWR (%): 19%

## OC12CC3CC(C1)C1(OOC4(CCC5(CC4)OCCO5)O1)C(C3)C2 (stereo not shown) [OZ152, 5-Hydroxyadamantane-2-spiro-3′-1′,2′,4′,9′,12′-pentaoxadispiro[4.2.4.2]tetradecane]
[1]; chloroquine-resistant K1 strain, 72 h incubation
  IC50 (ng/ml) K1: 3.2 ng/mL (≈ 9.46 nM)
[2]; chloroquine-sensitive NF54 strain, 72 h incubation
  IC50 (ng/ml) NF54: 7.2 ng/mL (≈ 21.3 nM)
[3]
  Survival (days) 10 mg/kg po: 6.3 days
[3]; 10 mg/kg
  Activity (%) 10 mg/kg po: 0%
  Survival (days) 10 mg/kg SSV po: 6.7 days
  Activity (%) 10 mg/kg SSV po: 12%
  Survival (days) 10 mg/kg sc: 6.7 days
  Activity (%) 10 mg/kg sc: 22%
[4]; [8]
  % reduction of schistosomule growth at day 21 after per os application of 200 mg/kg, FWR (%): 11%
[4]; [9]
  % reduction of schistosomule growth at day 21 after per os application of 200 mg/kg, TWR (%): 19%

## C1C2CC3CC1CC(C2)C31OOC2(CCC3(CC2)OOC2(O3)C3CC4CC(C3)CC2C4)O1 (stereo not shown) [OZ169, Adamantane-2-spiro-3′-1′,2′,4′,9′,10′,12′-hexaoxadispiro[4.2.4.2]tetradecane-11′-spiro-2″-adamantane]
[1]; [6]
  IC50: 15 ng/mL (≈ 33.7 nM)
[2]; [7]
  IC50: > 10 ng/mL
[3]
  Survival (days) 10 mg/kg po: 7.7 days
  Activity (%) 10 mg/kg po: 98%
  Survival (days) 10 mg/kg SSV po: 6.7 days
  Activity (%) 10 mg/kg SSV po: 22%
  Survival (days) 10 mg/kg sc: 9.0 days
  Activity (%) 10 mg/kg sc: 99.76%
[4]; [8]
  % reduction of schistosomule growth at day 21 after per os application of 200 mg/kg, FWR (%): 0%
[4]; [9]
  % reduction of schistosomule growth at day 21 after per os application of 200 mg/kg, TWR (%): 0%
